Experimental data: patent publication US11306078B2, “Piperidine CXCR7 receptor modulators” (IDORSIA PHARMACEUTICALS LTD., priority 2016, dated 2022)

target: human chemokine receptor CXCR7 (Homo sapiens (Human), UniProt P25106); test: Tango CXCR7-bla U2OS beta-arrestin recruitment assay (beta-lactamase reporter, FRET), antagonism of CXCL12/SDF1-α; type: cell-based; conditions: antagonistic effect on CXCR7; Tango CXCR7-bla U2OS cells, CXCL12/SDF1-α at its EC80;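 also: compounds preincubated 15 min before CXCL12 addition, then 22 h at 37 °C, FRET emission ratio read with CCF4-AM substrate after 2 h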
Sequence (P25106 whole entry): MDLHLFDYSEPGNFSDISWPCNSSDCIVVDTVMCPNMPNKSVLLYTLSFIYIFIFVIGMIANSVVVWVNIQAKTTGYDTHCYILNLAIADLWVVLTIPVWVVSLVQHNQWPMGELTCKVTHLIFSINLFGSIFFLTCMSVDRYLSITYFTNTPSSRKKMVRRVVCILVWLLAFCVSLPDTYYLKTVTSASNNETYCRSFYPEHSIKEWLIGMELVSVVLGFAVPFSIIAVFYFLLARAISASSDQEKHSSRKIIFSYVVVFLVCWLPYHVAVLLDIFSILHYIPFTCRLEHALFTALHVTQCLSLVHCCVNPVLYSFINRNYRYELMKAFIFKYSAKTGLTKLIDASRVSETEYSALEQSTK

IC50 | SMILES
0.028 µM | CC(C1CC1)N1CC[C@@H](NC(=O)c2cc(-c3ccc(F)cc3F)on2)[C@H](C(=O)N(C)C)C1 (some centres unmarked) [Example 2.013]
0.269 µM | CN(C)C(=O)[C@@H]1CN([C@@H]2CCC[C@H]2CO)CC[C@H]1NC(=O)c1cc(-c2ccc(F)cc2F)on1 [Example 2.014]
0.054 µM | CC[C@@H]1CCC[C@H]1N1CC[C@@H](NC(=O)c2cc(-c3ccc(F)cc3F)on2)[C@H](C(=O)N(C)C)C1 [Example 2.015]
0.08 µM | C[C@@H]1CC[C@H]1N1CC[C@@H](NC(=O)c2cc(-c3ccc(F)cc3F)on2)[C@H](C(=O)N(C)C)C1 [Example 2.016]
0.049 µM | C[C@@H]1CC[C@H]1N1CC[C@@H](NC(=O)c2cc(-c3ccc(F)cc3F)on2)[C@H](C(=O)N(C)C)C1 [Example 2.016a]
0.063 µM | C[C@@H]1CC[C@H]1N1CC[C@@H](NC(=O)c2cc(-c3ccc(F)cc3F)on2)[C@H](C(=O)N(C)C)C1 [Example 2.016b]
0.073 µM | CN(C)C(=O)[C@@H]1CN(C2CCC2(C)C)CC[C@H]1NC(=O)c1cc(-c2ccc(F)cc2F)on1 (some centres unmarked) [Example 2.017]
0.145 µM | CN(C)C(=O)[C@@H]1CN(C2CCC(C)(C)C2)CC[C@H]1NC(=O)c1cc(-c2ccc(F)cc2F)on1 (some centres unmarked) [Example 2.018]
0.126 µM | CN(C)C(=O)[C@@H]1CN(C2CCCC2)CC[C@H]1NC(=O)c1cc(-c2ccc(F)cc2F)on1 [Example 2.019]
0.044 µM | CN(C)C(=O)[C@@H]1CN(C2CCCC2)CC[C@H]1NC(=O)c1cc(-c2ccc(F)cc2F)on1 [Example 2.019a]
0.293 µM | CC(C)CCN1CC[C@@H](NC(=O)c2cc(-c3ccc(F)cc3F)on2)[C@H](C(=O)N(C)C)C1 [Example 2.021]
0.155 µM | CN(C)C(=O)[C@@H]1CN(CCC(C)(C)C)CC[C@H]1NC(=O)c1cc(-c2ccc(F)cc2F)on1 [Example 2.022]
0.037 µM | C[C@@H]1CCC[C@H]1N1CC[C@@H](NC(=O)c2cc(-c3ccc(F)cc3F)on2)[C@H](C(=O)N(C)C)C1 [Example 2.023]
0.009 µM | C[C@@H]1CCC[C@H]1N1CC[C@@H](NC(=O)c2cc(-c3ccc(F)cc3F)on2)[C@H](C(=O)N(C)C)C1 [Example 2.023a]
0.026 µM | C[C@@H]1CCC[C@H]1N1CC[C@@H](NC(=O)c2cc(-c3ccc(F)cc3F)on2)[C@H](C(=O)N(C)C)C1 [Example 2.023b]
0.101 µM | CN(C)C(=O)[C@@H]1CN(C2CCCC(C)(C)C2)CC[C@H]1NC(=O)c1cc(-c2ccc(F)cc2F)on1 (some centres unmarked) [Example 2.024]
0.435 µM | CN(C)C(=O)[C@@H]1CN(C2CC3(CCC3)C2)CC[C@H]1NC(=O)c1cc(-c2ccc(F)cc2F)on1 [Example 2.025]
0.249 µM | CN(C)C(=O)[C@@H]1CN(C2CCC(F)CC2)CC[C@H]1NC(=O)c1cc(-c2ccc(F)cc2F)on1 (some centres unmarked) [Example 2.026]
0.745 µM | CN(C)C(=O)[C@@H]1CN(C2CCC(F)(F)CC2)CC[C@H]1NC(=O)c1cc(-c2ccc(F)cc2F)on1 [Example 2.027]
0.06 µM | CN(C)C(=O)[C@@H]1CN(C2CCC2)CC[C@H]1NC(=O)c1cc(-c2ccc(F)cc2F)on1 [Example 2.028]
0.06 µM | CN(C)C(=O)[C@@H]1CN(CC2CC2)CC[C@H]1NC(=O)c1cc(-c2ccc(F)cc2F)on1 [Example 2.029]
0.558 µM | CN(C)C(=O)[C@@H]1CN(C2CC(C)(C)C2)CC[C@H]1NC(=O)c1cc(-c2ccc(F)cc2F)on1 [Example 2.031]
0.192 µM | CO[C@@H]1CCC[C@@H](N2CC[C@@H](NC(=O)c3cc(-c4ccc(F)cc4F)on3)[C@H](C(=O)N(C)C)C2)C1 [Example 2.032]
0.132 µM | CO[C@@H]1CCCC[C@H]1N1CC[C@@H](NC(=O)c2cc(-c3ccc(F)cc3F)on2)[C@H](C(=O)N(C)C)C1 [Example 2.033]
0.087 µM | CN(C)C(=O)[C@@H]1CN(CC2(C)CC2)CC[C@H]1NC(=O)c1cc(-c2ccc(F)cc2F)on1 [Example 2.034]
0.121 µM | CN(C)C(=O)[C@@H]1CN(CC2(C)CCC2)CC[C@H]1NC(=O)c1cc(-c2ccc(F)cc2F)on1 [Example 2.035]
